The source of these data is ChEMBL document CHEMBL4396952, “Xanthone, benzophenone and bianthrone derivatives from the hypersaline lake-derived fungus Aspergillus wentii” (Bioorg Med Chem, 2019).

The data set can be described thus: Stability of the compound by HPLC analysis. The class given is physicochemical.

With `COc1cc(OC)c2c(c1)[C@@H]([C@@H]1c3cc(C)cc(O)c3C(=O)c3c(OC)cc(O)cc31)c1cc(C)cc(O)c1C2=O`, the Stability result is “Unstable”.
